Results: PMC4785615, “Evidence that phospholipase C is involved in the antitumour action of NSC768313, a new thieno[2,3-b]pyridine derivative” (Cancer Cell International, 2016)

What was measured:
MCF7 = assay: Cell proliferation assay (3H-thymidine incorporation, 3 days); assay type: cell-based; conditions: Homo sapiens, 72 h, 3 days treatment, read-out: IC50 (50 % inhibition of growth)
Description: (§1) Culture conditions have been described in detail previously; human breast cancer cell lines MCF-7, T47D, MDA-MB-468, MDA-MB-231, human epithelial carcinoma cell line A431 and human colon cancer cell line HCT116 were purchased from the American Type Culture Collection (ATCC). Cells were grown in α-MEM containing 5 % fetal calf serum, insulin/transferrin/selenium supplement, added according to the manufacturer’s instructions (Roche), as well as penicillin/streptomycin (100 U/ml and 100 μg/ml, respectively).
(§2) As described in detail previously, cell proliferation was measured using a thymidine incorporation assay by seeding 3000 cells in each well using 96 well plates with varying concentrations of inhibitors for 3 days. Experiments were performed in triplicate with a minimum of two experimental repeats. Briefly, ^3H-thymidine (0.04 µCi) was added to each well and incubated for 5 h, after which the cells were gathered onto glass fibre filters using an automated TomTec harvester. Filters were incubated with Betaplate Scint and thymidine incorporation determined with Trilux/Betaplate counter showing the percentage of cells incorporated with ^3H-thymidine into the DNA helix.

MDA-MB-231 [1] = assay: as above; assay type: cell-based; conditions: Homo sapiens, 72 h; MDA-MB-231, thymidine incorporation, 3 days treatment; read-out: IC50 (50 % inhibition of growth)
Description: as §1, §2

MDA-MB-468 = assay: as above; assay type: cell-based; conditions: Homo sapiens, 72 h; MDA-MB-468, thymidine incorporation, 3 days treatment; read-out: IC50 (50 % inhibition of growth)
Description: as §1, §2

[2] = test system: MDA-MB-231 breast cancer cells; assay: DNA damage by γH2AX (flow cytometry, immunoblot); assay type: cell-based, human; conditions: MDA-MB-231, 1 μM, 24 h; for Proportion of cells with high γ-H2AX phosphorylation: basal level 1 %
Description: (§3) As described in detail previously, cells (10^6 cells per well) were grown in 6 well plates and incubated with inhibitors for the indicated time. Cells were harvested, washed and resuspended in 1 ml of blocking buffer (1 % FCS/PBS), and incubated with antibody to γ-H2AX (phosphorylated Ser139) (Millipore, USA) in blocking buffer (1:500 dilution) at room temperature for 2 h. Cells were washed, incubated with goat anti-mouse Alex 488 Fab fragment secondary antibody (Invitrogen, New Zealand) (1:400 in blocking buffer for 1 h, at room temperature; dark), washed and resuspended in 1 ml of blocking buffer containing RNase (1 μg/ml) and propidium iodide (PI) (10 μg/ml) for 30 min at room temperature. Cells were analysed in a Becton–Dickinson LSRII and profiles were analysed with ModFit LT 3 software.
As described in detail previously cells were grown to log-phase, washed twice with ice-cold PBS, and lysed in SDS lysis buffer according to the manufacturer’s protocol (Cell Signalling Technology, Danvers, MA, USA). Protein concentration was quantified using the BCA protein assay reagent bicinchoninic acid (Sigma, New Zealand). Cell lysates containing 25 μg of protein were separated by SDS-PAGE and transferred to PVDF membranes (Millipore). Membranes were immunoblotted with antibodies against to γ-H2AX (phosphorylated Ser139) (Millipore, USA), and actin (Millipore), using SuperSignalWest Pico (Thermo Scientific, Waltham,MA, USA) chemiluminescence reagents. Antibody reactivity was visualized using the chemiluminescence detection system by Fujifilm Las-3000.

[3] = test system: MDA-MB-231 breast cancer cells; assay: Cell cycle distribution by flow cytometry; assay type: cell-based, human; conditions: MDA-MB-231, 1 μM, 24 h
Description: as §3

[4] = test system: MDA-MB-231 breast cancer cells; assay: Microtubule imaging (anti-tubulin and Hoechst staining); assay type: cell-based, human; conditions: MDA-MB-231, 16 h; for Microtubule arrangement: FITC anti-tubulin staining
Description: Cells were grown on a glass slide with and without inhibitors, fixed by 4 % paraformaldehyde, permeabilised by 0.5 % Triton X-PBS and incubated with 5 % BSA/PBS containing FITC-labelled anti-tubulin antibody. Microtubule arrangement was monitored by fluorescence staining of microtubules using anti-tubulin and analysed by fluorescent microscopy using Floid imaging station (460× magnification). Nucleus was stained with 2 μg/ml Hoechst stain (Life Technology) for 10 min at room temperature. Hoechst stain emits blue fluorescence when bound to double strand DNA.

A431 cells = assay: Calcium flux assay (EGF-induced, Fluo-4); assay type: cell-based, human; conditions: pre-treatment at 25 and 50 μM, EGF 400 ng/ml
Description: A431 cells were plated onto 96 wells until confluent. Cells were loaded with 5 µM Fluo-4 acetoxymethyl ester with 0.003 % pluronic acid and 2.5 mM Probenecid (Molecular Probes) for 30 min at 37 °C, then washed with buffer and incubated for another 30 min. Epidermal growth factor (EGF) (400 ng/ml) was used as an activator. EGF alone or with derivative 3 were added to A431 cells to determine the inhibitory activity on calcium flux of derivative 3, and compared with buffer (negative control) and 1 µg/ml ionomycin (positive control). Fluorescence signal was recorded from the bottom of the plate at 1 s intervals (3 wells per/s) using an EnSpire 2300 Multimode Plate Reader (Perkin-Elmer) at excitation wavelength of 494 nm and emission wavelength of 506 nm (25 °C, 3 mm measurement height, 50 flashes). Baseline fluorescence was recorded for 10 s, after which buffer alone, EGF alone or with drug, was added and fluorescence was captured for a further 45 s. Next, ionomycin was added and fluorescence was recorded for another 45 s. Three independent experiments were performed.

HCT116 = assay: Combination growth inhibition with cytotoxic drugs (Bliss model); assay type: cell-based, human; conditions: HCT116, derivative 3 50 nM plus paclitaxel
Description: as §2
(§4) As described previously for everolimus and other inhibitors, we employed the Bliss additivism model to classify the drug combinations as additive, synergistic or antagonistic. A theoretical curve was calculated for combined inhibition using the equation Ebliss = (EA + EB) − (EA × EB), where EA and EB are the fractional inhibitions obtained by drug A alone and drug B alone at specific concentrations. Ebliss is the fractional inhibition that would be expected if the effects of the two drugs were additive. The difference (Bliss) in the experimentally measured fractional inhibition (Expt) and Ebliss are defined as synergism […], additive (Expt = Ebliss), and antagonism […]. Bliss = 0 would indicate the combination is additive; Bliss > 0 would indicate the percentage increase in maximal inhibition above additivity (synergy); and Bliss < 0 would indicate the percentage decrease in maximal inhibition below additivity (antagonism). The data were analysed using a one-way ANOVA coupled with multiple comparisons versus treatment control applying the Holm-Sidak method correction, where p < 0.05 denotes a statistically significant difference.

MDA-MB-231 [5] = assay: as above; assay type: cell-based, human
Description: as §2, §4

[6] = Mouse plasma pharmacokinetics; assay type: in vivo; conditions: ip, male CD-1 mice, 10 mg/Kg intraperitoneal
Description: (§5) Male CD-1 mice were obtained from Vernon Jansen Unit (University of Auckland) and housed in cages with a 12-hour light/dark cycle and received sterilized food and water ad libitum. Studies and procedures were conducted with prior approval of the Ethics Committee of the University of Auckland (AEC approval number 1190). Derivative 3 was prepared in 20 % HP-β CD as a fine yellow suspension, and administered (at 10 mg/Kg) as intraperitoneal bolus injection. Blood samples were collected via a terminal cardiac bleeding (n = 3 mice/time) at 0.167, 0.5, 1, 2 and 6 h post dose. Blood was collected in ice cold K2-EDTA tubes and kept on ice. All samples were centrifuged at 6500 rpm for 5 min at room temperature, obtained plasma were stored at −80 °C until analysed by LC–MS/MS.
Briefly, plasma samples were assayed for derivative 3 using liquid chromatography-tandem mass spectrometry (LC–MS/MS) method. Briefly, derivative 3 was spiked in the drug mouse plasma to obtain a concentration 0.003, 0.03, 0.3, 3, 10 and 30 µM to construct a calibration curve. Derivative 1 (a structural analogue of 3) was used as an internal standard in LC–MS/MS assay at a concentration of 0.5 μM added to acetonitrile. Drug was extracted from plasma using direct protein precipitation with ice cold acetonitrile (1:4 v/v) and quantified by peak area ratio of 3 versus 1 using a calibration curve prepared with derivative 3 as outlined above. LC–MS/MS used was Agilent 6410b with multimode ion source operated in atmospheric pressure chemical ionization (APCI) positive mode attached to an Agilent 1200 series HPLC system. LC–MS/MS used an Agilent Zorbax SB-C18 column (2.1 × 50 mm, 5 µM, USA) operated at 35 °C, at a flow rate 0.5 mL/min with a gradient consisting of 0.01 % formic acid in MilliQ water (Millipore, USA) and 0.01 % formic acid in 80 % acetonitrile-20 % MilliQ water. The MS1 and MS2 were operated at unit resolution in the multiple reaction monitoring (MRM) mode, monitoring the transition of the protonated molecular ions at m/z 368 to the product ions at m/z 245 for derivative 3 and monitoring the transition of the protonated molecular ions at m/z 372 to the product ions at m/z 245 for derivative 1 (internal standard). […] The lower limit of quantification for derivative 3 in plasma was 0.003 μM.
Mean mouse plasma-time data for derivative 3 was analysed with non-compartmental method using Phoenix WinNonlin 6.2 (Pharsight Corporation, Mountain View, CA) as shown in Table 1.

[7] = Tolerability in mice after intraperitoneal injection; assay type: in vivo; conditions: 10 mg/Kg intraperitoneal injection, 20 % HP-β CD
Description: as §5
Derivative 3 was chosen for a small pharmacokinetic study.

Aqueous solubility = assay type: physicochemical
breast cancer cells = test system: breast cancer cells; parameters: method as in doi:10.1039/C3MD00290J; conditions: earlier flow cytometry; cited from earlier work
T47D = assay: Cell proliferation assay (3H-thymidine incorporation, 3 days); assay type: cell-based, human; conditions: 3 days treatment
Description: as §1, §2

SMILES: COc1cccc(NC(=O)c2sc3nc4c(cc3c2N)C(=O)CCC4)c1 [derivative 3]
- IC50 (MCF7): < 100 nM
- IC50 (MDA-MB-231 [1]): < 100 nM
- IC50 (MDA-MB-468): < 100 nM
- DNA damage (γH2AX) [2]: did not initiate DNA damage
- Proportion of cells with high γ-H2AX phosphorylation [2]: 4%
- Cell cycle effect [3]: induce G2/M phase cell cycle arrest
- Cell morphology [4]: membrane blebbing
- Microtubule arrangement [4]: No microtubule bundles were observed
- Nuclear phenotype ([4]; Hoechst staining): abnormal nuclear phenotype and possessed multinuclear cells
- Effect on increase in intracellular calcium levels induced by EGF (A431 cells): no effect
- Drug interaction with paclitaxel (Bliss) (HCT116): Synergism
- Drug interaction with camptothecin (Bliss) (MDA-MB-231 [5]; MDA-MB-231, derivative 3 50 nM plus camptothecin): only additive effects
- Drug interaction with doxorubicin (Bliss) (MDA-MB-231 [5]; MDA-MB-231, derivative 3 50 nM plus doxorubicin): only additive effects
- Drug interaction with paclitaxel (Bliss) (MDA-MB-231 [5]; MDA-MB-231, derivative 3 50 nM plus paclitaxel): synergistic effect
- half-life ([6]; male, CD-1, mouse, 10 mg/kg, read-out: t1/2 (elimination half-life)): > 240 min
- k el ([6]; mouse, 20 % HP-β CD suspension, read-out: Ke (elimination rate constant) (converted)): 4.72e-06 s⁻¹
- AUC(0-inf) ([6]; mouse, extrapolated to infinity): 0.19 µM·h
- Tmax ([6]; mouse, post injection, read-out: Time of maximal plasma concentration (converted)): 30 min
- Cmax ([6]; mouse, read-out: Cmax (maximum concentration in plasma)): 87 nM
- AUC(0-t) ([6]; mouse, up to 6 h, read-out: AUC0–6 h): 0.13 µM·h
- Tolerability [7]: well tolerated with no acute reaction observed
- Aqueous solubility (Aqueous solubility): poor

SMILES: CC(=O)O[C@H]1C(=O)[C@@]2(C)[C@H]([C@H](OC(=O)c3ccccc3)[C@]3(O)C[C@H](OC(=O)[C@H](O)[C@@H](NC(=O)c4ccccc4)c4ccccc4)C(C)=C1C3(C)C)[C@]1(OC(C)=O)CO[C@@H]1C[C@@H]2O [paclitaxel, reference compound]
- Microtubule arrangement [4]: shortened and bundling of microtubules

SMILES: Nc1c(C(=O)Nc2cccc(Cl)c2)sc2nc3c(cc12)C(=O)CCC3 [derivative 1]
- Cell cycle effect (breast cancer cells): caused G2/M arrest

SMILES: CC[C@@]1(O)C(=O)OCc2c1cc1n(c2=O)Cc2cc3ccccc3nc2-1 [camptothecin, reference compound]
- Proportion of cells with high γ-H2AX phosphorylation [2]: 69%

SMILES: Nc1c(C(=O)Nc2cccc3ccccc23)sc2nc3c(cc12)C(=O)CCC3 [derivative 5]
- IC50 (50 % inhibition of growth) (T47D): not reached
